Columns and labels:
[1] = system: CD70; assay: CD70 expression on CD4+ cells of PBMCs cultured with medications used to treat lupus, flow cytometry; assay type: cell-based, human; conditions: PBMCs with or without PHA, 24 hours, graded concentrations (1-100 μM)
[2] = system: CD70; conditions: PHA-stimulated T cells, 3 days, oligonucleotide arrays, mean±SEM, 2 independent experiments
[3] = system: CD70 promoter; assay: Bisulfite sequencing of the CD70 (TNFSF7) promoter in CD4+ T cells; assay type: cell-based, human; conditions: for methylation of the 10 CG pairs between −515 and −423 of the TNFSF7 promoter: CD4+ T cells stimulated with anti-CD3 and anti-CD28, vs stimulated untreated controls (FIG. 13, 14)
Method: (§1) In other studies, T cells were isolated by negative selection using magnetic beads and instructions provided by the manufacturer (Pan T cell Isolation Kit, Miltenyi), and the CD4+ or CD8+ subset was similarly isolated by magnetic cell sorting. Jurkat cells (E6-1) were cultured as previously described (See, e.g., Cornacchia et al., J Immunol 140:2197 (1998)). Purified human CD4+ T cells were first stimulated with plate bound anti-CD3 and soluble anti-CD28. Briefly, 24 well plates were coated with 300 μl of anti-CD3 (10 μg/ml in PBS—SouthernBiotech) 18 hours 4° C., washed, then 2×10^6 purified T cells were added to the wells in 2 ml RPMI 1640/10% FCS containing 2 μg/ml anti-CD28 (SouthernBiotech).
Bisulfite sequencing. The putative CD70 promoter was identified using the published CD70 cDNA sequence and Tfsitescan software. Deoxycytosine (dC) and deoxymethylcytosine (d^mC) bases in the gene promoter and 5′ flanking sequences were identified by bisulfite treatment of purified DNA followed by nested PCR amplification of 3 sequential fragments to span the entire region. The primers were designed to avoid CG pairs and to account for the conversion of dC to dU by the bisulfite. EcoRI sites were added to the forward primers, and XbaI to the reverse, to facilitate cloning. The amplified fragments were then cloned into PBS+, and 5 clones sequenced for each fragment. The primers used were: […]
The effect of lupus and DNA methylation inhibitors on a regulatory element in the CD70 promoter was examined. DNA was isolated from the CD4+ T cells of 7 healthy individuals or 6 lupus patients, bisulfite treated, the region from −466-−515, containing 6 CG pairs was amplified by PCR, and 5 fragments sequenced from each individual. The average methylation status of the 6 CG pairs for healthy versus lupus individuals is shown (FIG. 8, NI and Lupus, respectively). CD4+ T cells from 5 individuals were also stimulated with PHA, treated with the irreversible DNA methyltransferase inhibitor 5-azacytidine (5-azaC), and the methylation status of the 6 CG pairs similarly analyzed from the 25 fragments sequenced (FIG. 8, 5-azaC). […] Results are presented as the mean±SEM of the average methylation of the 6 CG pairs, measured from the 10-35 determinations/group.
The effects of the DNA methylation inhibitors on the methylation status of this region were then compared. […] Again, 5 cloned fragments were sequenced from each control, for a total of 35 determinations per CG pair. […] FIG. 14 compares the average methylation for the 10 CG pairs (−515 to −423) in the T cells treated with DNA methylation inhibitors relative to stimulated, untreated controls.

[4] = system: CD70; assay: Flow cytometric analysis of CD70 expression on drug-treated T cells; assay type: cell-based, human; conditions: for CD70 expression on CD4+ T cells: summary statement; for increase of CD70 MFI on CD4+ T cells: 1 μM 5-azaC (n=5), 25 μM PD98059 (n=3), 40 μM U0126 (n=4); for CD70 expression on PHA-stimulated T cells, treated vs untreated: unfractionated T cells, 3 days, 1 μM 5-azaC, procainamide dose response, 25 μM PD98059, 40 μM U0126 (FIG. 2); for CD70 expression increase on cloned T cell line TT48E: 1 μM 5-azaC or 40 μM U0126 for 3 days, 6 serial experiments
[5] = system: CD70 mRNA; assay: Real time RT-PCR of CD70 transcripts relative to β-actin in T cells; assay type: cell-based, human; conditions: for CD70 mRNA (transcripts) in CD4+ T cells: anti-CD3 + anti-CD28, 3 days, 5 μm 5-azaC, 50 μm Pca, 20 μm Hyd, 40 μm UO126, 25 μm PD98059 (FIG. 9); for expression of CD70 mRNA relative to that of beta-actin: PHA-stimulated T cells, treated vs untreated, real time RT-PCR (FIG. 1B)
Method: Cells and cell culture. Peripheral blood mononuclear cells (PBMCs) were isolated by density-gradient centrifugation. T cells were then isolated by E-rosetting (See, e.g., Golbus et al., Clin Immunol Immunopathol 46, 129 (1988)). […] Where indicated, the cells were cultured in RPMI 1640/10% fetal calf serum (FCS) supplemented with interleukin-2 (IL-2) (See, e.g., Richardson et al., Clin Immunol Immunopathol 55, 368 (1990)), in round-bottomed 5-ml culture tubes (FALCON). Cells were stimulated with 1 μg/ml of PHA (REMEL) for 16 hours, then cultured in 24-well plates at a density of 1×10^6 for an additional 72 hours in the presence of 2-deoxy-5-azaC or 5-azaC (SIGMA ALDRICH), procainamide (SIGMA ALDRICH), hydralazine (SIGMA ALDRICH), or the MEK inhibitors U0126 (PROMEGA) or PD98059 (PROMEGA). In other studies, PHA-stimulated PBMCs were cultured in RPMI 1640/10% FCS and treated with indomethacin, chloroquine, hydrocortisone, and 6-mercaptopurine (6-MP) (all from SIGMA ALDRICH). TT48E, a cloned, CD4+, tetanus toxoid-reactive human T cell line, was cultured as previously described (Cornacchia et al., J Immunol 140, 2197 (1988); Richardson et al., Arthritis Rheum 35, 647 (1992)).
as §1

[6] = system: B cell IgG production; assay: T cell and B cell costimulation assay, IgG ELISA of supernatants; assay type: cell-based, human; conditions: autologous B cells; for IgG produced by B cells cultured with drug-treated cloned T cells vs untreated T cells: TT48E treated 3 days, without PWM, P<0.05 (FIG. 4); for IgG secreted by B cells cultured with drug-treated T cells vs untreated T cells: unfractionated PHA-stimulated T cells, PWM, 8 days, P<0.05 (FIG. 3)
Method: T cell and B cell costimulation assays. E-rosette-purified T cells were stimulated for 16 hours with PHA and then treated with the indicated chemicals for an additional 72 hours as described above. Where indicated, T cell subsets were isolated by negative selection using magnetic beads (Miltenyi). B cells (1-4×10^5) enriched by negative selection using magnetic beads (Miltenyi) and assessed to be 70-85% pure using PE-conjugated anti-human CD21 (PHARMINGEN), were added to washed, drug-treated autologous T cells, at T cell to B cell ratios of 4:1, 2:1, 1:1, 1:2, and 1:4. Where indicated, 0.625 μg/ml of PWM (ALDRICH) was added. The cells were cultured in RPMI 1640/10% FBS/penicillin/streptomycin for 8 days in 96-well roundbottomed plates (Costar) containing a 200 μl total volume (performed in duplicate). Cells were supplemented with 50 μl of medium on day 4. Where indicated, 1 μg/ml of anti-CD70 monoclonal antibody (HNE51) (DAKO) was added to the cultures. TT48E cells were similarly stimulated with PHA (1 μg/ml) for 18 hours, treated with the indicated drugs for 3 days, then similarly cultured with autologous B cells for 8 days. Where indicated, the TT48E cells were pretreated with 1 μg/ml of anti-CD70 for 30 minutes at 4° C., then washed and added to the B cells, according to protocols described by others (See, e.g., Kobata et al., Proc Natl Acad Sci USA 92, 11249 (1995)).
IgG enzyme-linked immunosorbent assays (ELISAs). IgG was measured in the supernatants of the T cell-B cell cultures (See, e.g., Richardson et al., Clin Immunol Immunopathol 55, 368 (1990)). Briefly, 96-well flatbottomed polystyrene plates (Costar) were coated with 1 μg/ml of goat anti-human IgG (Southern Biotech) and washed. Unreacted combining sites were sealed with 3% bovine serum albumin (BSA) in phosphate buffered saline (PBS) by incubation at 4° C. for 16 hours. Pooled supernatants from duplicate wells were diluted 1:5 in PBS/1% BSA, and 50 μl was added to the wells. Serial dilutions of purified human IgG (Sigma) were used for quantitation. Following incubation and washing, goat anti-human IgG conjugated with horseradish peroxidase (Southern Biotech) was added, and cells were incubated for 2 hours at room temperature. The wells were washed 3 times with PBS/0.1% Tween 20, and color was developed using Sigma Fast tablets. The plates were read at 405 nm using a SpectraMax spectrophotometer (Molecular Devices). All determinations were performed in quadruplicate.
Since CD70 participates in T cell-dependent B cell stimulation (See e.g., Kobata et al., Proc Natl Acad Sci USA 92, 11249 (1995)), the effects of DNA methylation inhibitors on CD70-dependent B cell help were examined. […] Eight days later, total IgG in the supernatants was measured by ELISA. […]

| SMILES | CD70 expression on stimulated or unstimulated CD4+ cells [1] | methylation of the 10 CG pairs between −515 and −423 of the TNFSF7 promoter [3] | CD70 expression on CD4+ T cells [4] | increase of CD70 MFI on CD4+ T cells [4] [fold] | CD70 expression on PHA-stimulated T cells, treated vs untreated [4] | CD70 mRNA (transcripts) in CD4+ T cells [5] | further results |
| --- | --- | --- | --- | --- | --- | --- | --- |
| C[C@]12CCC(=O)C=C1CC[C@@H]1[C@@H]2[C@@H](O)C[C@@]2(C)[C@H]1CC[C@]2(O)C(=O)CO [hydrocortisone] | No increase in CD70 expression |  |  |  |  |  |  |
| Sc1ncnc2nc[nH]c12 [6-MP, 6-mercaptopurine] | No increase in CD70 expression |  |  |  |  |  |  |
| COc1ccc2c(c1)c(CC(=O)O)c(C)n2C(=O)c1ccc(Cl)cc1 [indomethacin] | No increase in CD70 expression |  |  |  |  |  |  |
| Nc1ncn([C@H]2C[C@H](O)[C@@H](CO)O2)c(=O)n1 [2-deoxy-5-azaC] |  |  |  |  |  |  | CD70 expression increase in treated cells relative to untreated controls [2]: 2.6±0.6 fold |
| COc1cccc(-c2cc(=O)c3ccccc3o2)c1N [PD98059] |  | appears to demethylate | increased CD70 expression | 1.63±0.43 | increase in CD70 expression | increased steady state levels of CD70 mRNA |  |
| CCN(CC)CCNC(=O)c1ccc(N)cc1 [procainamide] |  | appears to demethylate | increased CD70 expression |  | increase in the ratio of the mean fluorescence intensity (MFI) of CD70 expression | increased steady state levels of CD70 mRNA | methylation of the region from −466-−515 (6 CG pairs) of the CD70 promoter ([3]; PHA-stimulated CD4+ T cells (FIG. 8)): demethylate this region |
| Nc1ncn([C@@H]2O[C@H](CO)[C@@H](O)[C@H]2O)c(=O)n1 [5-azaC, 5-azacytidine] |  | hypomethylated compared to controls | increased CD70 expression | 1.53±0.45 | small increase | increased steady state levels of CD70 mRNA | CD70 expression increase in treated cells relative to untreated controls [2]: > 2 fold; IgG produced by B cells cultured with drug-treated cloned T cells vs untreated T cells [6]: greater amounts of IgG; IgG secreted by B cells cultured with drug-treated T cells vs untreated T cells [6]: greater amounts of IgG; CD70 expression increase on cloned T cell line TT48E [4]: 1.69±0.33 fold; concentration producing the greatest effect on CD70 expression ([4]; range of 5-azaC concentrations, PHA-stimulated T cells, n=5 experiments (FIG. 2B)): 1 µM; expression of CD70 mRNA relative to that of beta-actin [5]: increased the expression of CD70 mRNA |
| N#CC(=C(/N)Sc1ccccc1N)/C(C#N)=C(\N)Sc1ccccc1N [U0126] |  | appears to demethylate | increased CD70 expression | 3.20±0.44 | increase in CD70 expression | increased steady state levels of CD70 mRNA | IgG produced by B cells cultured with drug-treated cloned T cells vs untreated T cells [6]: greater amounts of IgG; IgG secreted by B cells cultured with drug-treated T cells vs untreated T cells [6]: greater amounts of IgG; CD70 MFI increase in T cells treated with U0126 (FIG. 2I) ([4]; T cells treated with 40 μM U0126, P=0.085): 2.83±0.95 fold; CD70 expression increase on cloned T cell line TT48E [4]: 1.87±0.37 fold; expression of CD70 mRNA relative to that of beta-actin [5]: increased the expression of CD70 mRNA |
| CCN(CC)CCCC(C)Nc1ccnc2cc(Cl)ccc12 (stereo not drawn) [chloroquine] | No increase in CD70 expression |  |  |  |  |  |  |

Reference: patent US7723037B2, “Methods and kits for diagnosing or monitoring autoimmune and chronic inflammatory disease” (The Regents of the University of Michigan, priority 2004, dated 2010)
